Measurements from patent US20230054595A1, “NOVEL DRUGGABLE TARGETS FOR THE TREATMENT OF INFLAMMATORY DISEASES SUCH AS SYSTEMIC LUPUS ERYTHEMATOSUS (SLE) AND METHODS FOR DIAGNOSIS AND TREATMENT USING THE SAME” (THE CHILDREN'S HOSPITAL OF PHILADELPHIA, priority 2019, published 2023).

System: TFH cells
Assay: IL-21 secretion by in vitro differentiated TFH cells cultured with pharmacologic inhibitors (ELISA)
Assay type: cell-based, human
Settings: 5 days with inhibitor (A64 150-2500 nM; PF06260933 3.7-100 nM), restimulated with anti-CD3+anti-CD28, ELISA
Experimental: Human primary CD4+ T cells were cultured under TFH condition for 5 days in the presence of the indicated concentrations of each inhibitor (150 nM to 2500 nM for A64, 3.7 nM to 100 nM for PF06260933). In addition, anti-CD3- and anti-CD28-stimulated human CD4+ T cells (non-TFH) were cultured in the presence of inhibitors. After 5 days of primary culture, cells were harvested and 10^6 cells were restimulated with plate-bound human anti-CD3+ anti-CD28 (1 ug/ml each) in the presence of inhibitors. Culture supernatants were collected at the indicated timepoints for measurement of IL-2 and IL-21 by ELISA (eBioscience).

With `Nc1ccc(-c2cnc(N)c(-c3ccc(Cl)cc3)c2)cn1` [PF06260933] the “IL-21 production by TFH cells” value was “dose-dependent reduction” and the “IL-21 production by TFH cells” value (listed as MINK inhibitory drug) was “dose-dependent inhibition”.
